Values after ≈ are worked out from the molar mass of the structure shown. Bounds are passed on as bounds.

As usually defined, the solubility (kinetic) is solubility judged after dilution from a stock solution rather than from solid.

For this data set the following is noted: buffer; pH 7.4; 200.0 µM.
`O=C(NC1CC1)C(=O)c1c[nH]c2ccccc12` yielded a solubility (kinetic) of over 34.2 µg/mL. As to `COc1ccc(-c2nc(C)ncc2-c2ccc(Cl)cc2)c(O)c1`, the kinetic solubility is under 0.3 µg/mL.

The compound `COc1ccc(CCC(C)NCC(C)c2ccccc2)cc1` (centres undefined) yielded a solubility (kinetic) of over 44.6 µg/mL. With `Cc1[nH]c(=O)[nH]c(=S)c1C(=O)Nc1ccc(Cl)c(Cl)c1` the figure was 36.9 µg/mL (≈ 112 µM); with `O=C(COC(=O)[C@@H]1CC(O)CN1S(=O)(=O)c1ccc(Cl)c(Cl)c1)NC(=O)NCc1ccccc1` (some centres undefined), 66.7 µg/mL (≈ 126 µM); with `N#Cc1ccc(NC(=S)NCCN2CCOCC2)cc1`, over 43.6 µg/mL. With `O=C(COC(=O)/C=C/c1ccc(OC(F)F)cc1)NC(=O)NC1CCCCC1` the figure was 4.5 µg/mL (≈ 11.4 µM). With `COc1ccccc1CNC(=O)COC(=O)c1ccc(Cl)nc1` the figure was over 50.2 µg/mL; with `S=C(NCc1ccccc1)NCc1ccccc1Cl`, 28.4 µg/mL (≈ 97.7 µM).

In turn, `CC(=O)c1cccc(NC(=O)c2ccc3c(c2)CCCC3)c1` showed a solubility (kinetic) of 0.8 µg/mL (≈ 2.73 µM).

`COc1ccc2oc(C(=O)Nc3ccccn3)c(C)c2c1`: the kinetic solubility is 22 µg/mL (≈ 77.9 µM). Compared with the last compound, the solubility kinetic is about 28-fold higher. With `OCCN1CCN(CC#CCC(c2ccccc2)c2ccccc2)CC1` the figure was over 52.3 µg/mL; with `COc1ccc(C)cc1NCc1ccc([N+](=O)[O-])cc1`, 3.1 µg/mL (≈ 11.4 µM); with `CCN(CC)CCNC(=O)COc1ccc(OC)cc1`, 32 µg/mL (≈ 114 µM). Next, `COC(=O)c1ccc(S(=O)(=O)NCc2ccc(OC)cc2)n1C`: over 50.8 µg/mL; `CC(C)CC(=O)NC(=S)Nc1ccccc1N1CCCC1`: 4 µg/mL (≈ 13.1 µM). Next, `COc1ccc(NC(=O)COC(=O)C2C3CC4OC(=O)C2C4C3)cc1` (centres undefined): over 51.8 µg/mL; `c1ccc(N2CCOCCOCCOCCOCCOCC2)cc1`: over 50.9 µg/mL. As for `Cc1ccc2nc(-c3ccccc3)cc(C(=O)N3CC(C)OC(C)C3)c2c1` (centres undefined), the kinetic solubility stood at 49.1 µg/mL (≈ 136 µM).

Turning to `O=C(Cc1c(F)cccc1Cl)Nc1nccs1`, the kinetic solubility was 30 µg/mL (≈ 111 µM). With `COc1cc(CN2CCCN(C)CC2)cc([N+](=O)[O-])c1O` the figure was 33.9 µg/mL (≈ 115 µM); with `C=CCSc1nc(N)c2c3c(sc2n1)CN(C)CC3`, 43.5 µg/mL (≈ 149 µM).

As to `Cc1cc(C)c(S(=O)(=O)c2ccccc2)c(=O)[nH]1`, the kinetic solubility was over 39.5 µg/mL. Next, `Cn1c(N)c(C(=O)COC(=O)Cc2ccccc2F)c(=O)n(C)c1=O`: 24.2 µg/mL (≈ 69.3 µM). With `Cc1cc(C)c(C(=O)CSc2nc(C)cc(=O)[nH]2)c(C)c1` the figure was 14 µg/mL (≈ 46.3 µM). Next, `O=C1CC(N2CCc3ccccc32)C(=O)N1c1ccccc1` (centres undefined): 37.3 µg/mL (≈ 128 µM); `CCC(C)CCCCNC1=NCCS1` (centres undefined): over 32.2 µg/mL; `Cc1cc(C(=O)O)ccc1NCc1cccnc1`: 36 µg/mL (≈ 149 µM).

Turning to `CC(C)C(=O)Nc1c(-c2cccc(Cl)c2)c(=O)c2ccccc2n1C`, the solubility (kinetic) is 10.1 µg/mL (≈ 28.5 µM). Next, `CS(=O)(=O)N1CCc2cc(C(=O)Nc3ccccc3)ccc21`: 2.3 µg/mL (≈ 7.27 µM); `CCN(CC)c1ccc(NC(=O)c2ccc3c(c2)OCO3)cc1`: 6.4 µg/mL (≈ 20.5 µM); `Cc1ccc(NC(=O)COc2ccc(Br)cc2CO)cc1S(=O)(=O)N1CCOCC1`: 21.1 µg/mL (≈ 42.3 µM). Next, `CC1CCCN(C(=O)COC(=O)Cn2cnc3ccccc32)C1` (centres undefined): over 47.3 µg/mL; `CCOc1ccc(N2C(=O)CSC2=NC#N)cc1`: 38.3 µg/mL (≈ 147 µM). Next, `O=C(CN1C(=O)NC2(CCCCCC2)C1=O)Nc1ccccc1[N+](=O)[O-]`: 7.3 µg/mL (≈ 20.3 µM); `Cc1c(C)n(Cc2ccccc2)c2ncnc(NCCCN(C)C)c12`: over 50.6 µg/mL.

Take `O=C(Oc1ccccc1C(=O)N1CCOCC1)c1ccc(F)cc1`: the kinetic solubility was 45.1 µg/mL (≈ 137 µM). Next, `O=C(NC(c1ccccc1)c1ccccn1)c1cccc([N+](=O)[O-])c1` (centres undefined): 38.3 µg/mL (≈ 115 µM); `CC(C)NC(=O)C(=O)c1cn(C)c2ccccc12`: 33.3 µg/mL (≈ 136 µM). Next, `COc1cc2c(cc1OC)C(c1cccc(Cl)c1)CC(=O)N2` (centres undefined): 38 µg/mL (≈ 120 µM). With `O=C(OCC(=O)N1CCOCC1)c1ccc(F)cc1Cl` the figure was over 45.3 µg/mL; with `O=[N+]([O-])c1ccc(N2CCN(c3ccc(F)cc3)CC2)cn1`, 3.5 µg/mL (≈ 11.6 µM); with `COc1ccc(CC(=O)NCCCCc2ccccc2)cc1OC`, over 49.1 µg/mL.

In turn, `CC1C(=O)N2CCCc3cc(NS(=O)(=O)c4ccccc4)cc1c32` (centres undefined) returned a solubility (kinetic) of over 51.4 µg/mL. With `CCNc1nc(NCc2ccccc2)nc(SCC(N)=O)n1` the figure was 42.2 µg/mL (≈ 133 µM); with `Cc1ccc(OCC(=O)NC(C)c2ccccc2)cc1C` (centres undefined), over 42.5 µg/mL; with `O=C(COC(=O)/C=C/c1cccs1)Nc1ccc(Cl)cc1F`, 3.7 µg/mL (≈ 10.9 µM). In the case of `Cc1ccc(O)c(C(=O)c2cnc(/N=C(\N)N(C)C)nc2)c1`, the solubility (kinetic) was determined as 41.1 µg/mL (≈ 137 µM).

As for `Cc1ccsc1C(=O)Nc1ccc(OCc2ccccc2)cc1`, the solubility (kinetic) is under 0.7 µg/mL. With `Cn1c(SCC(=O)N2CCCC2)nc2ccccc21` the figure was over 41.3 µg/mL; with `CCOC(=O)N1CCc2c(sc3nc[nH]c(=O)c23)C1`, 38.9 µg/mL (≈ 139 µM); with `Nc1nc(F)cc(NCc2ccccc2)n1`, over 32.7 µg/mL. With `O=C(NCC1CCCO1)c1cccnc1NCc1ccc(F)cc1` (centres undefined) the figure was over 49.4 µg/mL; with `O=C(NCCCCc1ccccc1)c1cccc(Br)c1`, 9.6 µg/mL (≈ 28.9 µM); with `Clc1ccc2nc(-c3ccccc3)cn2c1`, 1.4 µg/mL (≈ 6.12 µM). `CSc1ccc(C2N=C(c3ccccc3)NO2)cc1` (centres undefined) displayed a solubility (kinetic) of 11.9 µg/mL (≈ 44 µM). In turn, `COc1ccccc1C(=O)NCCC(=O)N1CCCC(C(F)(F)F)C1` (centres undefined) came in with a kinetic solubility of 52.3 µg/mL (≈ 146 µM). This solubility kinetic is about 4.4-fold higher than that of the compound before. With `O=C(NCc1ccccc1)C(=O)Nc1nc(-c2ccccc2)cs1` the figure was under 0.2 µg/mL; with `Cn1c(=O)[nH]c(=O)c2c1nc(N1CCCC1)n2CCO`, over 41.9 µg/mL.

`COC(=O)c1cn(C(=O)c2cc(OC)cc(OC)c2)c2ccccc12` yielded a kinetic solubility of 3.4 µg/mL (≈ 10 µM). On to `Cc1cc(C)cc(NC(=S)N(CCN(C)C)Cc2cccs2)c1`, for which the solubility (kinetic) was 43.7 µg/mL (≈ 126 µM). With `O=C(O)c1ccc(N=Cc2nc(-c3ccco3)oc2O)cc1` the figure was over 44.7 µg/mL; with `Cc1ccc(NC(=O)Nc2ccc3c(c2)C(=O)OC3)cc1Cl`, under 0.3 µg/mL; with `Cc1ccc(OCC(=O)N(Cc2ccccc2)c2ccccn2)cc1`, 49.6 µg/mL (≈ 149 µM). Next, `COc1ccc(Br)cc1C(=O)Nc1cccc2ncccc12`: 1.7 µg/mL (≈ 4.76 µM); `O=[N+]([O-])c1ccc(OCC2CC(c3ccccc3)=NO2)cc1` (centres undefined): under 0.3 µg/mL; `Cc1ccc(C(=O)N2CCN(C(=O)C3CCCO3)CC2)cc1` (centres undefined): over 45.4 µg/mL. With `COc1ccccc1OCC(=O)Nc1ccc(S(=O)(=O)N(C)c2ccccc2)cc1` the figure was 2.4 µg/mL (≈ 5.63 µM); with `Cn1c(CNc2ccc(F)cc2)nc2ccccc21`, over 38.3 µg/mL; with `O=C(Nc1nonc1-c1ccc(F)cc1)c1ccco1`, over 41 µg/mL.

`CC(=O)NCc1ccc(-c2csc(-c3cccs3)n2)cc1` had a solubility (kinetic) of 4.8 µg/mL (≈ 15.3 µM). With `O=C(C1CCCO1)N1CCN(C(=S)NC2CC2)CC1` (centres undefined) the figure was over 42.5 µg/mL; with `COc1ccc(CCNC(=O)Cc2cccs2)cc1OC`, over 45.8 µg/mL. `Cc1ccc(C(=O)NCC(=O)OCc2c(F)cccc2Cl)s1`: the kinetic solubility came out at 9.2 µg/mL (≈ 26.9 µM).

With `O=C(CCN1C(=O)C2CC=CCC2C1=O)OCC(=O)c1ccc(F)cc1` (centres undefined), the solubility (kinetic) was over 53.9 µg/mL. Next, `CCNC(=S)NNC(=O)CC(C)C`: over 30.5 µg/mL; `O=[N+]([O-])c1c(Nc2ccc(Br)cc2)ccc2nonc12`: under 0.2 µg/mL; `N#Cc1c(-c2ccccc2)cc(-c2ccc(O)cc2)nc1N`: under 0.2 µg/mL. With `Cc1ccc2oc(C(=O)NCc3ccccc3)cc(=O)c2c1` the figure was under 0.6 µg/mL; with `Cc1cc(C)c(NC(=O)C(C)N2CCCCCC2)c(C)c1.Cl` (centres undefined), 36.6 µg/mL; with `CCc1cccc(NS(=O)(=O)c2csc(C(N)=O)c2)c1`, over 46.6 µg/mL. Compound `COc1ccc(NC(=O)c2cccnn2)cc1` displayed a kinetic solubility of over 34.4 µg/mL. In turn, `COc1ccc(NC(=O)CN(C)C(=O)Cc2ccsc2)cc1` had a solubility (kinetic) of 42 µg/mL (≈ 132 µM). `Cc1nc(NC(=O)CN2CC(C)OC(C)C2)sc1C(=O)N(C)C` (centres undefined) had a kinetic solubility of 44.2 µg/mL (≈ 130 µM). Compound `CC(C(=O)N1CCN(c2ccccc2)CC1)c1ccc([N+](=O)[O-])cc1` (centres undefined) came in with a solubility (kinetic) of 40.7 µg/mL (≈ 120 µM).

In turn, `CCc1ccc2nc(Nc3ncc(C(C)=O)c(C)n3)nc(C)c2c1` gave a kinetic solubility of 6.9 µg/mL (≈ 21.5 µM). Next, `COc1ccc(OC)c(COC(=O)c2cccc(S(=O)(=O)N3CCCCC3)c2)c1`: 10.1 µg/mL (≈ 24.1 µM). `Cc1ccc(NC(=O)C2CCCN(C(=O)Nc3ccc(F)cc3)C2)cc1` (centres undefined) yielded a kinetic solubility of 13.4 µg/mL (≈ 37.7 µM).

`NC(=O)c1[nH]cnc1N`: the kinetic solubility was over 18.9 µg/mL. Next, `COc1cc([N+](=O)[O-])ccc1NC(=O)CSc1ccccn1`: 0.5 µg/mL (≈ 1.57 µM); `COc1ccc(NC(=O)c2ccc3c(c2)OCO3)cc1S(=O)(=O)N1CCOCC1`: 14.7 µg/mL (≈ 35 µM).

Consider `COc1ccc(C2CC(=O)C(C=NCCCO)=C(O)C2)cc1` (centres undefined), for which the kinetic solubility is over 45.5 µg/mL. Next, `COc1cc(OC)cc(C(=O)N[C@H](C(=O)NCc2ccco2)C(C)C)c1`: 45.3 µg/mL (≈ 126 µM); `COc1cc(N)ccc1-c1cc2ccccc2oc1=O`: over 40.1 µg/mL; `COc1ccc(NC(=O)COC(=O)CCc2ccccc2)c(OC)c1`: 5.2 µg/mL (≈ 15.1 µM). Compound `O=C(CN1C(=O)c2ccccc2S1(=O)=O)N1CCCCC1` had a kinetic solubility of over 46.3 µg/mL. `COc1ccc(N=C(C)c2c(O)[nH]c(=O)[nH]c2=O)cc1`: the kinetic solubility is 5 µg/mL (≈ 18.2 µM). Next, `CC(=O)Nc1ccc(NC=C(C#N)C#N)cc1`: 4.2 µg/mL (≈ 18.6 µM); `Cc1cccc(C(=O)Nc2cccc3c2CCCC3)c1`: 0.8 µg/mL (≈ 3.01 µM). Next, `CSc1ccccc1C(=O)NCc1cccnc1`: over 38.8 µg/mL; `CCCOc1ccc(C(=O)NC2CCSc3ccccc32)cc1` (centres undefined): 1.6 µg/mL (≈ 4.89 µM). With `OC1/C(=C/c2ccccc2F)N2CCC1CC2` (centres undefined) the figure was over 35 µg/mL; with `Nc1nccc(/C=C/c2c(Cl)cccc2Cl)n1`, 1.9 µg/mL (≈ 7.14 µM). `O=c1nc2n(c3ncccc13)CCCCC2`: the solubility (kinetic) is over 32.3 µg/mL.

The record behind these values is PubChem BioAssay AID1996.
